In ChEMBL document CHEMBL1131675, “A new anti-tubulin agent containing the benzo[b]thiophene ring system” (1999) one finds Control, inhibition and EC50 data, which are given here for 6 compounds.

Molecules are shown by their SMILES.

Assay [1] concerns the target Tubulin alpha chain (Sus scrofa) (UniProt P02550). Description: Percentage control on Tubulin-Dependent GTP hydrolysis was evaluated at 50 uM concentration. In kind it is functional. The arrangement: scale not given: the % may be the effect or the level left.
The target is the same in assay [2]. Description: Percentage inhibition of [3H]colchicine binding to tubulin was evaluated at 50 uM concentration.
Assay [3] has the same target. Description: Percentage control on Tubulin-Dependent GTP hydrolysis was evaluated at 10 uM concentration. It counts as functional. The arrangement: scale not given: the % may be the effect or the level left.
In the next assay the test system is P388. Description: Inhibition of murine P388 lymphocytic leukemia cell proliferation. In kind it is functional. As to conditions: Mus musculus, read-out: ED50 (the source's name).
In assay [4] the target is Tubulin alpha chain (Sus scrofa) (UniProt P02550). Description: Percentage control on Tubulin- Dependent GTP hydrolysis was evaluated at 10 micro M concentration. It counts as functional. Further details: scale not given: the % may be the effect or the level left.
Sequence of Tubulin alpha chain (Sus scrofa) (P02550 whole entry, looked up): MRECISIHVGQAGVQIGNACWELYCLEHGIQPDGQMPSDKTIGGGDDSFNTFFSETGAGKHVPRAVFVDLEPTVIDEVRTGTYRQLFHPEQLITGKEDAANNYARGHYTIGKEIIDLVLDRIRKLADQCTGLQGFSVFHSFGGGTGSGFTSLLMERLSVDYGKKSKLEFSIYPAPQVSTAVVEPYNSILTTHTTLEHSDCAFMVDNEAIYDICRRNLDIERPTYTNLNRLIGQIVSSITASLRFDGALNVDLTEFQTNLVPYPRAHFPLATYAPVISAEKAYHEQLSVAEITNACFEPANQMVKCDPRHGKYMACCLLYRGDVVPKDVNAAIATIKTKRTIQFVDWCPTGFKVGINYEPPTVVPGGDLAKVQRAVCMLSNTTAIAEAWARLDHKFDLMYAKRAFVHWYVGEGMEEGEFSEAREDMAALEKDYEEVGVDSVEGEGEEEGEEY
For assay [5] the target is unchanged. Description: Percentage control on Tubulin- Dependent GTP hydrolysis was evaluated at 50 micro M concentration. The arrangement: scale not given: the % may be the effect or the level left. It counts as functional.

Broadly, the inhibition is the change of the read-out against control, counted positive when it falls. With `COc1ccc(-c2sc3cc(OC)ccc3c2C(=O)c2cc(OC)c(OC)c(OC)c2)cc1`, the figures for the Control in assay [1] and in assay [3] were 135% and 122%, respectively. The inhibition in assay [2] was found to be 28%. `COc1ccc(-c2sc3cc(OC)ccc3c2C(=O)c2cc(OC)cc(OC)c2)cc1`: the EC50 with P388 was over 100 µg/mL. Same read-out and setting: the same measure for `COc1ccc(-c2sc3cc(OC)ccc3c2C(=O)c2cc(OC)c(O)c(OC)c2)cc1`: over 100 µg/mL. As for `COc1ccc(-c2sc3cc(OC)ccc3c2C(=O)c2c(OC)cccc2OC)cc1`, the EC50 in the assay with P388 is over 100 µg/mL. On to `COc1ccc(/C=C\c2cc(OC)c(OC)c(OC)c2)cc1O`, for which the Control in assay [4] came out at 161%; in assay [5], 160%. For `COc1cc([C@@H]2c3cc4c(cc3[C@H](O)[C@H]3COC(=O)[C@H]23)OCO4)cc(OC)c1OC` the same measures were 43% and 31%.
